# Reference: ChEMBL document CHEMBL3259791, “Discovery of (E)-3-((styrylsulfonyl)methyl)pyridine and (E)-2-((styrylsulfonyl)methyl)pyridine derivatives as anticancer agents: synthesis, structure-activity relationships, and biological activities” (J Med Chem, 2014)
# Activity calls are given as the source filed them. The calls are words filed in the database; no cut-off is given here.
# What was measured:
# [1] = system: WI-38; assay: Cell cycle arrest in human WI38 cells assessed as accumulation at G1 phase at 1 uM after 24 hrs by flow cytometric analysis (reference value: 55.89%); assay type: functional
# [2] = Apparent permeability across basolateral to apical side in human Caco2 cells; assay type: ADME, cell-based; settings: Caco-2
# [3] = system: A2780; assay: Cell cycle arrest in human A2780 cells assessed as accumulation at G2/M phase at […] after 24 hrs by flow cytometric analysis (reference value: 21.81%); assay type: functional
# [4] = system: WI-38; assay: Induction of apoptosis in human WI38 cells assessed as late-stage apoptotic cells at 0.06 uM after 48 hrs by annexin V/PI double staining (reference value: 16.26%); assay type: functional
# [5] = system: MCF7; assay: Ratio of ON01910 IC50 to compound IC50 for ER positive human MCF7 cells; assay type: functional
# [6] = system: WI-38; assay: Induction of apoptosis in human WI38 cells assessed as caspase-3/7 activation up to 1 uM after 24 hrs by using Apo-ONE homogeneous caspase-3/7 kit; assay type: functional, cell-based
# [7] = system: WI-38; assay: Cell cycle arrest in human WI38 cells assessed as accumulation at G1 phase at 0.06 uM after 24 hrs by flow cytometric analysis (reference value: 55.89%); assay type: functional
# [8] = Cmax in mouse at 40 mg/kg, po after 24 hrs; assay type: ADME, organism-based; parameters: dose 40 mg/kg, route oral; settings: in vivo
# [9] = system: HCT-116; assay: Antiproliferative activity against human HCT116 cells assessed as cell growth inhibition after 72 hrs by MTT assay; assay type: functional; settings: HCT-116, 72 h
# [10] = system: MCF7; assay: Selectivity ratio of IC50 for human WI38 cells to IC50 for ER positive human MCF7 cells; assay type: functional
# [11] = system: A2780; assay: Selectivity ratio of IC50 for human WI38 cells to IC50 for human A2780 cells; assay type: functional
# [12] = system: WI-38; assay: Induction of apoptosis in human WI38 cells assessed as viable cells at 0.06 uM after 48 hrs by annexin V/PI double staining (reference value: 80.59%); assay type: functional; settings: WI-38, 48 h, read-out: Activity
# [13] = system: A2780; assay: Induction of apoptosis in human A2780 cells assessed as viable cells at 1 uM after 48 hrs by annexin V/PI double staining (reference value: 82.12%); assay type: functional; settings: A2780, 48 h, read-out: Activity
# [14] = system: WI-38; assay: Cell cycle arrest in human WI38 cells assessed as accumulation at S phase at 0.06 uM after 24 hrs by flow cytometric analysis (reference value: 16.25%); assay type: functional
# [15] = Octanol-buffer partition coefficient, log D of the compound at pH 7.4 by shake-flask method; assay type: physicochemical
# [16] = Apparent permeability across apical to basolateral side in human Caco2 cells; assay type: ADME, cell-based; settings: Caco-2
# [17] = Dissociation constant, pKa of the compound by pH-metric method; assay type: physicochemical
# [18] = system: WI-38; assay: Induction of apoptosis in human WI38 cells assessed as early-stage apoptotic cells at […] after 48 hrs by annexin V/PI double staining (reference value: 2.16%); assay type: functional
# [19] = system: A2780; assay: Induction of apoptosis in human A2780 cells assessed as early-stage apoptotic cells at 0.06 uM after 48 hrs by annexin V/PI double staining (reference value: 7.13%); assay type: functional
# [20] = system: A2780; assay: Cell cycle arrest in human A2780 cells assessed as accumulation at G1 phase at 0.06 uM after 24 hrs by flow cytometric analysis (reference value: 54.89%); assay type: functional
# [21] = target: Voltage-gated inwardly rectifying potassium channel KCNH2 (Homo sapiens, UniProt Q12809); assay: Inhibition of human ERG expressed in CHO cells
# Sequence of Voltage-gated inwardly rectifying potassium channel KCNH2 (Q12809 whole entry): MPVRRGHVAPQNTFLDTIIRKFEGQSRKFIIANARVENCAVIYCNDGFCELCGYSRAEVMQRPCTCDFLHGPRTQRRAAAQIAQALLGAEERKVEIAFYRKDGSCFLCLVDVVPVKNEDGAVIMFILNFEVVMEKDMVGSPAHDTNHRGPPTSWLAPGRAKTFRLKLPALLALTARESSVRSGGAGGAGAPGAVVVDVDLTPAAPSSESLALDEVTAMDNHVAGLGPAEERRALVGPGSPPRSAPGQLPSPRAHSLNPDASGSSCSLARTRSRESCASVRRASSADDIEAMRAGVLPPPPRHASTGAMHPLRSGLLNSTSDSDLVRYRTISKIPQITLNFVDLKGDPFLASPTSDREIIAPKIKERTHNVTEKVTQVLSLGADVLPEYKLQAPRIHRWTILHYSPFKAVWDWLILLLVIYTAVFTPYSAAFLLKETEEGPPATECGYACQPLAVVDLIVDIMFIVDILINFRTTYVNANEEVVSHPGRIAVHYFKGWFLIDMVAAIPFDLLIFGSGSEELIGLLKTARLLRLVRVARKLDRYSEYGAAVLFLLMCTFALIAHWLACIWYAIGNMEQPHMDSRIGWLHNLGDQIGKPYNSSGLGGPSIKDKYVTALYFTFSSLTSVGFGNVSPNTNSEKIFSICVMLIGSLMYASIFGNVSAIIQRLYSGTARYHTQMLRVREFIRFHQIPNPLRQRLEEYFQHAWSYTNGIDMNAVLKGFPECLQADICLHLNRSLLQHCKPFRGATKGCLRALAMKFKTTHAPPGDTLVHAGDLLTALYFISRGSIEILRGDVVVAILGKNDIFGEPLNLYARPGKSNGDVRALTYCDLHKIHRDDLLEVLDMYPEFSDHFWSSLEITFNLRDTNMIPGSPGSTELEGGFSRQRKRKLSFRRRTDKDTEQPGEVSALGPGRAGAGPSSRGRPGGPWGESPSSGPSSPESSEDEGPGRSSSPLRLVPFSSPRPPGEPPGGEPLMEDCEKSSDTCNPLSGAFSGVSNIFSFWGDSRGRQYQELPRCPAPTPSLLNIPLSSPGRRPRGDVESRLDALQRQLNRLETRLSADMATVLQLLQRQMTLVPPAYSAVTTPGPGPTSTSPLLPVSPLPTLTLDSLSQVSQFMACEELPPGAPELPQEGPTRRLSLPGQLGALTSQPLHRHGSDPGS
# [22] = system: LNCaP; assay: Selectivity ratio of IC50 for human WI38 cells to IC50 for AR positive human LNCAP cells; assay type: functional
# [23] = system: HeLa; assay: Antiproliferative activity against human HeLa cells assessed as cell growth inhibition after 72 hrs by MTT assay; assay type: functional
# [24] = system: DU-145; assay: Ratio of ON01910 IC50 to compound IC50 for AR negative human DU145 cells; assay type: functional
# [25] = Half life in rat liver microsomes; assay type: ADME
# [26] = system: DU-145; assay: Selectivity ratio of IC50 for human WI38 cells to IC50 for AR negative human DU145 cells; assay type: functional
# [27] = system: WI-38; assay: Cell cycle arrest in human WI38 cells assessed as accumulation at S phase at […] after 24 hrs by flow cytometric analysis (reference value: 16.25%); assay type: functional
# [28] = system: A2780; assay: Induction of apoptosis in human A2780 cells assessed as late-stage apoptotic cells at 0.06 uM after 48 hrs by annexin V/PI double staining (reference value: 10.20%); assay type: functional
# [29] = Oral bioavailability (0 to infinity) in mouse at 40 mg/kg after 24 hrs; assay type: ADME, organism-based; settings: in vivo
# [30] = system: HCT-116; assay: Ratio of ON01910 IC50 to compound IC50 for human HCT116 cells; assay type: functional
# [31] = system: HCT-116; assay: Selectivity ratio of IC50 for human WI38 cells to IC50 for human HCT116 cells; assay type: functional
# [32] = system: WI-38; assay: Selectivity ratio of IC50 for human WI38 cells to IC50 for ER negative human MDA-MB-231 cells; assay type: functional
# [33] = system: WI-38; assay: Cell cycle arrest in human WI38 cells assessed as accumulation at subG1 phase at 0.06 uM after 24 hrs by flow cytometric analysis (reference value: 10.53%); assay type: functional
# [34] = system: A2780; assay: Induction of apoptosis in human A2780 cells assessed as early-stage apoptotic cells at 1 uM after 48 hrs by annexin V/PI double staining (reference value: 7.13%); assay type: functional
# [35] = system: A2780; assay: Antitumor activity against human A2780 cells xenografted in mouse assessed as increase in life span at 50 mg/kg, po administered every second day for 2 weeks; assay type: functional
# [36] = system: MCF7; assay: Antiproliferative activity against ER positive human MCF7 cells assessed as cell growth inhibition after 72 hrs by MTT assay; assay type: functional; settings: MCF7, 72 h
# [37] = Aqueous solubility of the compound by turbidimetric solubility assay; assay type: physicochemical; settings: buffer
# [38] = system: WI-38; assay: Cell cycle arrest in human WI38 cells assessed as accumulation at G2/M phase at […] after 24 hrs by flow cytometric analysis (reference value: 17.36%); assay type: functional
# [39] = system: A2780; assay: Induction of apoptosis in human A2780 cells assessed as viable cells at 0.06 uM after 48 hrs by annexin V/PI double staining (reference value: 82.12%); assay type: functional; settings: A2780, 48 h, read-out: Activity
# [40] = AUC (0 to t) in mouse at 40 mg/kg, po after 24 hrs; assay type: ADME, organism-based; parameters: time < 24 hr, dose 40 mg/kg, route oral; settings: plasma
# [41] = system: PANC-1; assay: Selectivity ratio of IC50 for human WI38 cells to IC50 for human PANC1 cells; assay type: functional
# [42] = system: A2780; assay: Reduction in Mcl1 level in human A2780 cells at 0.03 uM after 24 hrs by Western blot analysis; assay type: functional, cell-based
# [43] = system: A2780; assay: Induction of apoptosis in human A2780 cells assessed as caspase-3/7 activation at 1 uM after 24 hrs by using Apo-ONE homogeneous caspase-3/7 kit; assay type: functional, cell-based
# [44] = AUC (0 to t) in mouse at 10 mg/kg, po after 24 hrs; assay type: ADME, organism-based; parameters: time < 24 hr, dose 10 mg/kg, route oral; settings: plasma
# [45] = Cmax in mouse at 10 mg/kg, po after 24 hrs; assay type: ADME, organism-based; parameters: dose 10 mg/kg, route oral; settings: in vivo
# [46] = system: A2780; assay: Reduction in CDC25C level in human A2780 cells at 1 uM after 24 hrs by Western blot analysis; assay type: functional, cell-based
# [47] = Oral bioavailability (0 to t) in mouse at 10 mg/kg after 24 hrs; assay type: ADME, organism-based; settings: in vivo
smiles,measurement,setting,value
COc1cc(OC)c(/C=C/S(=O)(=O)Cc2ccc(OC)c(N)n2)c(OC)c1,Activity,[1],60.09%
same,Papp B→A,[2],26.2 ×10⁻⁶ cm/s
same,Activity,[3],50.94%
same,Activity,[4],13.04%
same,Ratio IC50,[5],10
same,Activity,[6],inactive
same,Activity,[7],54.04%
same,Cmax,[8],2500 nM
same,GI50,[9],8 nM
same,Ratio IC50,[10],>1400
same,Ratio IC50,[11],>1400
same,viability at 0.06 µM,[12],82.2%
same,viability at 1 µM,[13],22.2%
same,Activity,[14],9.81%
same,logD,[15],2.41
same,Papp A→B,[16],33.1 ×10⁻⁶ cm/s
same,pKa,[17],4.67
same,Activity,[18],1.49%
same,Activity,[19],38%
same,Activity,[20],12.87%
same,IC50,[21],> 25000 nM
same,Ratio IC50,[22],>1400
same,GI50,[23],< 1 nM
same,Ratio IC50,[24],10
same,half-life,[25],0.25 h
same,Ratio IC50,[26],>1400
same,Activity,[27],9.5%
same,Activity,[28],25.69%
same,bioavailability,[29],68%
same,Ratio IC50,[30],10
same,Ratio IC50,[31],>1400
same,Ratio IC50,[32],>1400
same,Activity,[33],13.31%
same,Activity,[34],55.45%
same,Activity,[35],80%
same,GI50,[36],6 nM
same,solubility kinetic,[37],> 100 µM
same,Activity,[38],24.87%
same,viability at 0.06 µM,[39],33.3%
same,AUC(0-t) at 24 h,[40],23.1 µM·h
same,Ratio IC50,[41],>1400
same,inhibition,[42],Active
COc1cc(OC)c(/C=C/S(=O)(=O)Cc2ccc(OC)c(NS(C)(=O)=O)n2)c(OC)c1,Activity,[43],Active
same,Activity,[1],58.17%
same,Papp B→A,[2],53.4 ×10⁻⁶ cm/s
same,Activity,[3],19.36%
same,AUC(0-t) at 24 h,[44],5.6 µM·h
same,Activity,[4],18.51%
same,Activity,[6],inactive
same,Activity,[7],51.48%
same,GI50,[9],610 nM
same,Cmax,[45],2100 nM
same,viability at 0.06 µM,[12],78.1%
same,viability at 1 µM,[13],35.6%
same,inhibition,[46],Active
same,Activity,[14],14.51%
same,logD,[15],1.53
same,Papp A→B,[16],3.15 ×10⁻⁶ cm/s
same,pKa,[17],7.28
same,Activity,[18],2.86%
same,Activity,[19],4.67%
same,Activity,[20],57.73%
same,IC50,[21],> 25000 nM
same,GI50,[23],556 nM
same,half-life,[25],1.88 h
same,bioavailability,[47],50%
same,Activity,[27],13.26%
same,Activity,[28],7.36%
same,Activity,[33],10.05%
same,Activity,[34],38.36%
same,GI50,[36],468 nM
same,solubility kinetic,[37],> 100 µM
same,Activity,[38],14.08%
same,viability at 0.06 µM,[39],87.4%
COc1cc(OC)c(/C=C/S(=O)(=O)Cc2ccc(OC)c(NCC(=O)O)c2)c(OC)c1 [RIGOSERTIB],Activity,[1],53.8%
same,Activity,[3],31.77%
same,Activity,[4],11.54%
same,Activity,[7],64.47%
same,GI50,[9],70 nM
same,viability at 0.06 µM,[12],85.5%
same,viability at 1 µM,[13],26.6%
same,Activity,[14],11.86%
same,Activity,[18],5.36%
same,Activity,[19],3.82%
same,Activity,[20],53.41%
same,GI50,[23],12 nM
same,Activity,[27],9.32%
same,Activity,[28],6.27%
same,Activity,[33],5.71%
same,Activity,[34],50.22%
same,GI50,[36],50 nM
same,Activity,[38],26.83%
same,viability at 0.06 µM,[39],89.5%
